Patent publication US5874461A, “Use of Nebivolol as an anti-atherogenic” (priority 1995, dated 1999)
Read-outs that look alike come from different tables or passages of the source.

Legend:
C6 glioma cells [1] = test: Protection of C6 glioma cells from glutathione depletion-mediated oxidative stress (toxicity, LDH assay); type: cell-based
From the text: (§1) Competitive inhibition by glutamate of cystine uptake in certain cells leads to glutathione depletion and oxidative stress. This oxidative stress model has been described for glial C6 glioma cells (Kato et al., 1992. A mechanism for glutamate toxicity in the C6 glioma cells involving inhibition of cystine uptake leading to glutathione depletion. Neurosci. 48:903-914) and for the neuronal cell line N18RE105 (Murphy et al., 1989. Glutamate toxicity in a neuronal cell line involves inhibition of cystine transport leading to oxidative stress. Neuron 2:1547-1558).
(§2) Cell culture: The C6 glioma cell line (American Type Culture Collection, CCL 107) was cultivated in DMEM supplemented with 2 or 4 mM glutamine, 1 mM pyruvate and 5 or 10% heat-inactivated foetal calf serum. Cultures were maintained at 37° C. in an air/5~10% CO2, water saturated atmosphere.
(§3) Glutathione depletion and evaluation of drugs as antioxidants: Experiments were carried out with cultures plated at 30,000~50,000 cells/cm^2 in 24-well culture plates (for toxicity and lipid peroxide measurements) or at 136,000 cells/cm^2 in 96-well culture plates (for GSH determination). After 8-24 hr, the cultures were switched to culture medium in the absence or presence of the cystine uptake inhibitor glutamate at a final concentration of 10 mM. In order to test drugs for inhibition of oxidative stress, the drug was added together with glutamate (final concentration of solvent was 0.01% hydroxypropyl-β-cylodextrin, 0.1% DMSO). Intracellular glutathione levels were measured after 6~8 hr, lipid peroxides were measured after 14~20 hr, and toxicity and protection were analysed after 48 hr using an LDH assay according to the method of Bergmeyer and Bernt (UV-assay with pyruvate and NADH. In: Methods of Enzymatic Analysis. 1974. H. U. Bergmeyer, ed. Acad. Press, New York, 2nd Ed., pp 574-579).

human LDL = test: In vitro oxidation of human LDL (Cu-induced conjugated diene formation at 234 nm); type: biochemical
Procedure: In vitro oxidation of human LDL Human venous blood was collected on EDTA (2.68 mM final concentration). Plasma was isolated by centrifugation. NaBr (37.3 mg/ml) was added and solubulized (final density 1.036 g/ml). Centrifuge tubes were first filled to a level corresponding to 2/3 of their maximal volume, further filled with a NaBr solution of 1.036 g/ml and then centrifuged for 18 hours at 45000 rpm in a 50 Ti rotor (Beckmann). After centrifugation, floating lipoproteins were discarded. The remaining solution was adjusted to a density of 1.055 g/ml. Filling of the centrifuge tubes and centrifugation were repeated as described above. After centrifugation, floating LDL was dialysed against a buffer containing 127 mM NaCl, 8 mM Na2 HPO4.2H2 O, 2.7 mM KCl and 1.47 mM KH2 PO4 at pH 7.4. After dialysis, LDL was filtered though a Millipore filter (0.45 μM) and protein content was determined. A dilution of 25 μg/ml was prepared with a millipored dialysis buffer. Oxidation was determined in a Pharmacia Ultraspec III spectrophotometer. Conjugated diene formation was registered at 234 nm. Two μl of a drug or solvent (DMSO) were added to Eppendorf tubes followed by 1 ml of LDL (25 μg/ml) and these substances were gently mixed and centrifuged for 1 min at 13000 g. The solution was pipetted in a Quartz cuvet that was thermostatised in the spectrophotometer at 37° C. After equilibration, the oxidation reaction was started by the addition of CuSO4 (final concentration 10 μM). Absorbance was measured every 3 minutes during the time course of the experiment. The absorbance at 234 nm was divided into three phases: a lag phase, a propagation phase and a decomposition phase (FIG. 1). The lag phase was defined as the intercept with the baseline of the tangent of the slope of the absorbance curve of the propagation phase. The rate of oxidation was defined as the tangent of the slope. Tmax was defined as the time required to attain the maximum absorbance between the propagation and the decomposition phase. The absorbance at tmax minus the absorbance at to was taken as an indicator of the total amount of dienes formed. To verify the reproducibility of the assay, a reference LDL sample was prepared and kept in darkness under nitrogen at 4° C. This reference sample was included in every oxidation experiment. LDL was isolated from 23 subjects. Plasma cholesterol ranged from 156 to 278 mg/dl (mean 213 mg/dl), triglycerides ranged from 47 to 328 mg/dl (mean 191 mg/dl) and phospholipids ranged from 178 to 327 mg/dl (mean 231 mg/dl).

[2] = test system: primary embryonic hippocampal cultures; test: In vitro neuroprotection against nitric oxide and superoxide radicals (inhibition of LDH release); type: cell-based, rats; conditions: for inhibition at 1 µM / inhibition at 0.1 µM: Rattus norvegicus, read-out: % neuroprotection, mean ± SD; for inhibition at 1 µM: 10^-6 M; for inhibition at 0.1 µM: 10^-7 M
Procedure: Primary embryonic hippocampal cultures were prepared essentially as described previously (Pauwels et al., Van Aschouw, H. P., Peeters, L., Moeremans, M., Leysen, J. E. (1992) Chronic treatment with sabeluzole protects cultured rat brain neurons from the neurotoxic effects of excitatory amino acids. Synapse, 12:271-280). Hippocampal formations of rats at embryonic day 17 were dissected and dissociated in 0.05% trypsin, 0.1 mg/ml DNase I in DMEM (Dulbecco Modified Eagle Medium). Heat-inactivated horse serum (HS) was added to a concentration of 4%, and the cells were centrifuged, washed with DMEM, and resuspended in DMEM/Ham's F12 (3:1) containing 10% HS. The cells were plated at a density of 4×10^5 cells/cm^2 in poly L-lysine (0.001%) precoated multiwell-24 plates. On day 1 in culture, the medium was changed to chemically defined CDM-R12 medium (DMEM-HEPES/Ham's F12 (3:1) containing 0.26% bovine serum albumin, 30 nM sodium selenite, 3 nM 3,3',5 triiodo-L-thyronine, 0.35 μM retinol, 0.3 μM retinol acetate, 2.3 μM DL-a-tocopherol, 2.1 μM DL-a-tocopherol acetate, 3.6 μM linolenic acid, 3.6 μM linoleic acid, 0.125% human transferrin, […], 57.7 nM corticosterone, 49 U/I insulin, 0.4 μM biotin, 10 μM L-carnitine, 83 μM D(+)-galactose, 3.3 μM glutathione, 10 μM ethanolamine, 0.1 mM putrescine; Romijn, H. J., van Huizen, F., Wolters, P. S. (1984) Towards an improved serum-free, chemically defined medium for long-term culturing of cerebral cortex tissue. Neurosci. Behav. Rev., 8:301-334). Acute and prolonged pretreatment of the, cultures was essentially as described previously (Pauwels et al., 1992). Drugs were dissolved, and diluted in 10% or 1% hydroxypropyl-β-cyclodextrin such that the final concentrations of the solvent in the acute and chronic exposures were 0.1% and 0.01% respectively. Compound A as used in the following examples is [(RRSR)+(RRRS)+(SSSR) +(SSRS)]-α-[[[2-(chroman-2-yl)-2-hydroxy-ethyl]amino]methyl]-6-hydroxy-2-chromanmethanol ethanedioate (1:1).
For acute treatment, drug, or solvent was added to the cultures on day 7. After 20 min the medium was replaced with 200 μl chemically defined DMEM medium (the same composition of CDM-R12 medium but without Ham's F12) (control), or chemically defined DMEM medium containing the oxidative stress trigger. Oxidative stress triggers used were 1 mM sodium nitroprusside (SNP, a nitric oxide radical generating compound), or 7.5-10 mM diethyldithiocarbamate (DDTC, a superoxide dismutase inhibitor) and the test compound.
For prolonged pretreatment experiments, drug (concentration range 0.1 nM-10 μM) was added to the serum-free medium on days 1 and 4 of the culture. On day 7, the cultures were washed once with DMEM, and incubated with 0.2 ml chemically defined DMEM medium for 2 h at 37° C. The cells were washed and the medium was replaced by 0.2 ml chemically defined DMEM medium (control), or chemically defined DMEM medium containing the oxidative stress trigger (se above).
For both the acute experiment and the prolonged pretreatment experiment, extracellular and intracellular LDH (lactate dehydrogenase) activities were measured spectrophotometrically at 340 nm with an EPOS Analyzer 5060, according to the method of Bergmeyer (Bergmeyer, H. U. (1974) Biochemical reagents. In: Methods of Enzymatic Analysis. H. U. Bergmeyer, eds. Academic Press, New York, 2nd Ed., pp. […]). Extracellular LDH activity in the culture medium and cytoplasmic LDH activity measured after lysis of the cells in 1 ml H2 O, were used to calculate total LDH activity and % released LDH. % Neuroprotection refers to % inhibition of LDH release, where oxidative stress trigger-induced LDH release is defined as 0% protection, and basal (control) level of LDH release is defined as 100% protection.
Neuronal primary hippocampal cultures were grown in CDM-R12 medium for 7 days. Test compounds were either administered on days 1 and 4 of culture (prolonged pretreatment) or on day 7 of culture (acute treament). […]

C6 glioma cells [3] = test: Fluorescence measurement of intracellular peroxides in C6 glioma cells after glutamate; type: cell-based
From the text: as §1, §2, §3
Fluorescence measurement of intracellular peroxides: Formation of intracellular peroxides was detected using 6-carboxy-2',7'-dichlorodihydrofluorescin diacetate, di(acetoxymethyl ester) (C-DCDHF, Molecular Probes). C-DCDHF was dissolved in DMSO at a concentration of 10 mM and stored at -70° C. under nitrogen. After exposure of the culture to the glutathione depleting agents, the cells were loaded with 10 μM C-DCDHF for one hour at 37° C. Medium was aspirated off, PBS was added to the cells, and plates were read in a Cytofluor II microplate reader (PerSeptive Biosystems). Excitation and emission wavelength were selected with a 485/530 nm filter pair. The results were expressed in relative fluorescence units/μg protein.

C6 glioma cells [4] = test: GSH content in C6 glioma cultures after glutamate; type: cell-based
From the text: as §1, §2, §3
Determination of GSH content in C6 glioma cultures: GSH levels were analysed by a micromethod, essentially as described by Vandeputte et al. (A microtiterplate assay for total glutathione and glutathione disulfide contents in cultured/isolated cells: performance study of a new miniaturised protocol. 1994. Cell Biol. Toxicol. 10:415-421), with a modification in the washing and homogenisation procedures. Cells (in 96-well plates) were washed with PBS, were homogenised in 50 μl 10 mM HCl containing 1.3% 5-sulfosalicylic acid, and the homogenate was centrifuged at 1200×g for 10 min at 4° C. Forty μl of the supernatant was transferred to a well of a 96-well plate and 200 μl reagent (1 mM 5,5'-dithiobis-(2-nitrobenzoic acid), 0.34 mM NADPH and 6.3 mM EDTA in 143 mM phosphate buffer pH 7.4) was added. After 5 min equilibration to room temperature the reaction was started by adding 40 μl glutathione reductase (8.5 IU/ml 143 mM phosphate buffer, 6.3 mM EDTA pH 7.4). NADPH oxidation was followed at 414 nm for 5 minutes with a Multiskan MCC/340 (Labsystems), and the change in absorbance (DA) per min was calculated. The glutathione content was deduced from a standard curve ranging from 0.2 to 2 nmol commercial GSH per test (DA/min plotted versus concentration).

[5] = DDTC trigger, prolonged pretreatment
[6] = SNP trigger, prolonged pretreatment
[7] = glutamate 10 mM, without or with compound 1 μM

**Q.** `C[C@]12N[C@H](Cc3ccccc31)c1ccccc12` [MK801, reference compound] was tested. Which “cytoplasmic LDH release (glutamate toxicity)” value (C6 glioma cells [1]; data not shown) did it give?
**A.** not prevented

**Q.** Which results are given for `Oc1ccc2c(c1)CCC(C(O)CNCC(O)C1CCc3ccccc3O1)O2` (stereo not drawn) [[(RSSS)+(RSRR)+(SRSS)+(SRRR)]-α-[[[2-(chroman-2-yl)-2-hydroxyethyl]amino]-methyl]-6-hydroxy-2-chroman-methanol ethanedioate (1:1)]?
**A.** Tmax (human LDL; 2 μM, FIG. 2): increased; lag time (human LDL; 2 μM, FIG. 2): increased; rate of oxidation (human LDL; 2 μM, FIG. 2): decreased

**Q.** With `Oc1ccc2c(c1)CCC(C(O)CNCC(O)C1CCc3cc(O)ccc3O1)O2` (stereo not drawn) [[(SRSR)+(SRRS)+(RSSR)] -α,α'-iminobis(methylene)bis[6-hydroxy-2-chromanmethanol]] as the molecule, how does the Tmax (human LDL; 2 μM, FIG. 2) read?
**A.** increased

**Q.** And the lag time (human LDL; 2 μM, FIG. 2)?
**A.** increased

**Q.** What about the rate of oxidation (human LDL; 2 μM, FIG. 2) of the same molecule?
**A.** decreased

**Q.** With `COc1ccccc1OCCNCC(O)COc1cccc2[nH]c3ccccc3c12` (stereo not drawn) [carvedilol, reference compound] as the molecule, how does the inhibition at 1 µM ([2]; DDTC trigger, acute treatment) read?
**A.** < 25%

**Q.** And the inhibition at 0.1 µM ([2]; DDTC trigger, acute treatment)?
**A.** < 25%

**Q.** What about the inhibition at 1 µM [2, 5] of the same molecule?
**A.** < 25%

**Q.** What about the inhibition at 0.1 µM [2, 5] of the same molecule?
**A.** < 25%

**Q.** What about the inhibition at 1 µM ([2]; SNP trigger, acute treatment) of the same molecule?
**A.** < 25%

**Q.** And the inhibition at 0.1 µM ([2]; SNP trigger, acute treatment)?
**A.** < 25%

**Q.** What about the inhibition at 1 µM [2, 6] of the same molecule?
**A.** < 25%

**Q.** And the inhibition at 0.1 µM [2, 6]?
**A.** < 25%

**Q.** And the “neuroprotection against DDTC or SNP” value ([2]; one or the other treatment paradigm)?
**A.** not observed

**Q.** Which results are given for `N[C@@H](CCC(=O)O)C(=O)O` [glutamate, reference compound]?
**A.** increase in toxic intracellular peroxides (C6 glioma cells [3]; 10 mM glutamate): ~6 fold; Intracellular peroxides (mean ± SD, n) (C6 glioma cells [3]; [7]): 525 ± 57 Relative fluorescence units/μg; intracellular glutathione levels (C6 glioma cells [4]; 10 mM glutamate, 6 hr or more): sharp reduction in intracellular glutathione levels; GSH content (C6 glioma cells [4]; [7]): 296 ± 26 pmol/well; cytotoxicity at 10000 µM (C6 glioma cells [1]; Rattus norvegicus, C6 glioma, 48 h, read-out: LDH release, % of total LDH): 93.2 ± 1.3%

**Q.** How did the Tmax (human LDL; 20 μM vitamin E, compared with 2 μM hydroxymetabolites of nebivolol) turn out when `Cc1c(C)c2c(c(C)c1O)CCC(C)(CCCC(C)CCCC(C)CCCC(C)C)O2` (stereo not drawn) [vitamin E, α-tocopherol, reference compound] was run?
**A.** close to the tmax for the 2 μM hydroxymetabolites of nebivolol

**Q.** And the anti-oxidant effect (human LDL; concentration lower than 10 μM (results not shown))?
**A.** did not show any anti-oxidant effect

**Q.** And the “antioxidative effect on human LDL” value (human LDL; in vitro)?
**A.** delay the oxidation of LDL

**Q.** And the initial absorbance (human LDL; vitamin E)?
**A.** not affected

**Q.** What about the rate of oxidation (human LDL; vitamin E) of the same molecule?
**A.** not affected

**Q.** What about the total amount dienes (human LDL; vitamin E) of the same molecule?
**A.** not affected
